Results on one molecule are retold here after US20050256309A1, “Tri-and bi-cyclic heteroaryl histamine-3 receptor ligands” (priority 2004, published 2005).

SMILES strings stand for the structures. Where a name gives a salt, the structure may show the parent alone.

By melting point is commonly meant the temperature, or range, at which the solid turns liquid. `Cc1nc2cc(-c3ccc4nc(CCN5CCC[C@H]5C)ccc4c3)ccc2s1` (as salt: hydrochloride) [Example 14, 6-(2-Methyl-benzothiazol-5-yl)-2-[2-(2R-methyl-pyrrolidin-1-yl)-ethyl]-quinoline] registered a melting point of 182 to 183 °C.
